Assay results taken from patent US8871435B2, “Methods and compositions for identifying agents that inhibit an NS4B-mediated neoplastic cellular phenotype of HCV infected cells” (The Board of Trustees of the Leland Stanford Junior …, priority 2007, dated 2014).

Target: NS4B-GFP (Hepatitis C virus genotype 1b, UniProt Q9WMX2)
Type: binding, hepatitis C virus (HCV)

NS4B-GFP, sequence (Q9WMX2 1712-1972): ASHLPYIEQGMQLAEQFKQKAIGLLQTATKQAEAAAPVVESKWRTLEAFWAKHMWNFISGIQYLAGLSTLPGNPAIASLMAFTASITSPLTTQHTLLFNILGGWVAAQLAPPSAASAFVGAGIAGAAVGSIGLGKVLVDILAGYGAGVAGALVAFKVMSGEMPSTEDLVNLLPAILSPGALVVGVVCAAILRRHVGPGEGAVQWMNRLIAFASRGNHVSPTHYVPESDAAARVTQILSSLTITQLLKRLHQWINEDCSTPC

SMILES	binding of labeled GTP in the presence of cold competitor nucleotide	labeling (binding) of NS4B-GFP by 32P-labeled photoactivatable nucleotide analog
Nc1nc2c(ncn2[C@@H]2O[C@H](COP(=O)(O)OP(=O)(O)OP(O)(O)=S)[C@@H](O)[C@H]2O)c(=O)[nH]1 [GTPγS]	progressively decreased	–
[N-]=[N+]=Nc1ccc(NP(=O)(O)OP(=O)(O)OP(=O)(O)OC[C@H]2O[C@@H](n3cnc4c(N)ncnc43)[C@H](O)[C@@H]2O)cc1 [ATP, ATP-γ-4-azidoanilide]	–	significantly less efficient than GTP binding
[N-]=[N+]=Nc1ccc(NP(=O)(O)OP(=O)(O)OP(=O)(O)OC[C@H]2O[C@@H](n3cnc4c(=O)[nH]c(N)nc43)[C@H](O)[C@@H]2O)cc1 [GTP, GTP-γ-4-azidoanilide]	–	specifically labeled
